Measurements as given in patent US6767991B1, “Hepatitis C inhibitor peptides” (priority 1997, dated 2004).
Like-named read-outs stand apart in the source and are kept apart here. Where a SMILES comes first, the peptide text is derived from it. [ ]: non-standard residue; d: D form. The star is where a group is joined. Acca(2-Et,1R,2R) = CC[C@@H]1C[C@]1(N)C(=O)O; CH2(1-naphthyl) = c1ccc2c(C*)cccc2c1; Hyp = O=C(O)[C@@H]1C[C@@H](O)CN1; Chg = N[C@H](C(=O)O)C1CCCCC1; Nva = CCC[C@H](N)C(=O)O; X1 = c1ccc2cc(C*)ccc2c1; Ac3c = NC1(C(=O)O)CC1; Bn = c1ccc(C*)cc1

Tests used:
human leukocyte elastase = molecular target: T1, human leukocyte elastase (Homo sapiens, UniProt P08246); assay: Specificity assay: human leukocyte elastase; format: biochemical
T1 sequence (P08246 30-267): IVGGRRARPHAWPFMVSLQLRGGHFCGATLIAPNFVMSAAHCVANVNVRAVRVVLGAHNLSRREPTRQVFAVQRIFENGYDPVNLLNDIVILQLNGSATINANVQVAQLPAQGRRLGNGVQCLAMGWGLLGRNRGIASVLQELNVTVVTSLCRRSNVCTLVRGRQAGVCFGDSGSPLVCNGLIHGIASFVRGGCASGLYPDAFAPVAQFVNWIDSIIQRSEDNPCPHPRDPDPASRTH
Procedure: (§1) The final conditions for each assay were as follows:
[100 μM Succ-AAPF-pNA [SEQ. ID NO.
(§2) The percentage of inhibition was calculated using the formula:
(§3) [1-((UVinn-UVblank)/(UVctl-UVblank))]×100

[1] = molecular target: T2, HCV NS3 protease type 1b/NS4A cofactor peptide (Hepatitis C virus genotype 1b, UniProt P26663); assay: Recombinant HCV NS3 protease/NS4A cofactor peptide radiometric assay; format: biochemical, HCV genotype 1b
T2 construct: recombinant HCV NS3 protease (amino acid 1027 to 1206) was cloned in the pET11d bacterial expression vector; made in house; host or cells: E. coli BL21(DE3)pLysS

human liver cathepsin B = molecular target: T3, human liver cathepsin B (Homo sapiens, UniProt P07858); assay: Specificity assay: human liver cathepsin B; format: biochemical
T3 construct: from tissue; host or cells: human liver
Procedure: as §1
[100 mM NaHPO4 pH 6, 0.1 mM EDTA, 3% DMSO, 1 mM TCEP, 0.01% Tween-20, 30 μM Z-FR-pNA and 5 nM cathepsin B (tile stock enzyme was activated in buffer containing 20 mM TCEP before use)].
as §2, §3

[2] = molecular target: bovine pancreatic α-chymotrypsin (Bos taurus, UniProt P00766); assay: biochemical
Procedure: (§4) The specificity of the compounds was determined against a variety of serine proteases: human leukocyte elastase, porcine pancreatic elastase and bovine pancreatic α-chymotrypsin and one cysteine protease: human liver cathepsin B. In all cases a 96-well plate format protocol using a colorimetric p-nitroaniline (pNA) substrate specific for each enzyme was used. Each assay included a 1 h enzyme-inhibitor pre-incubation at 30° C. followed by addition of substrate and hydrolysis to ≈30% conversion as measured on a UV Thermomax® microplate reader. Substrate concentrations were kept as low as possible compared to KM to reduce substrate competition. Compound concentrations varied from 300 to 0.06 μM depending on their potency. The final conditions for each assay were as follows:
(§5) 50 mM Tris-HCl pH 8, 0.5 M Na2SO4, 50 mM NaCl, 0.1 mM EDTA, 3% DMSO, 0.01% Tween-20 with;
After 60 min pre-incubation at 30° C., 20 μL of substrate solution (50 mM Tris/HCl, pH 8, 0.5 M Na2SO4, 50 mM NaCl, 0.1 mM EDTA, 665 μM Succ-AAA-pNA) were added to each well and the reaction was further incubated at 30° C. for 60 min after which time the absorbance was read on the UV Thermomax® plate reader. Rows of wells were allocated for controls (no inhibitor) and for blanks (no inhibitor and no enzyme). […]
The percentage of inhibition was calculated using the formula: […]

[3] = molecular target: porcine pancreatic elastase (Sus scrofa, UniProt P00772); assay: biochemical
Procedure: as §4, §5
[100 μM Succ-AAPF-pNA [SEQ. […] 7] and 250 pM α-chymotrypsin], [133 μM Succ-AAA-pNA and 8 nM porcine elastase], [133 μM Succ-AAV-pNA and 8 nM leukocyte elastase]; or
A representative example is summarized below for porcine pancreatic elastase: In a polystyrene flat-bottom 96-well plate were added using a Biomek liquid handler (Beckman):
40 μL of assay buffer (50 mM Tris-HCl pH 8, 50 mM NaCl, 0.1 mM EDTA);
20 μL of enzyme solution (50 mM Tris-HCl pH 8, 50 mM NaCl, 0.1 mM EDTA, 0.02% Tween-20, 40 nM porcine pancreatic elastase); and
20 μL of inhibitor solution (50 mM Tris-HCl, pH 8, 50 mM NaCl, 0.1 mM EDTA, 0.02% Tween-20, 1.5 mM-0.3 μM inhibitor, 15% v/v DMSO).
After 60 min pre-incubation at 30° C., 20 μL of substrate solution (50 mM Tris/HCl, pH 8, 0.5 M Na2SO4, 50 mM NaCl, 0.1 mM EDTA, 665 μM Succ-AAA-pNA) were added to each well and the reaction was further incubated at 30° C. for 60 min after which time the absorbance was read on the UV Thermomax® plate reader. Rows of wells were allocated for controls (no inhibitor) and for blanks (no inhibitor and no enzyme). The sequential 2-fold dilutions of the inhibitor solution were performed on a separate plate by the liquid handler using 50 mM Tris-HCl pH 8, 50 mM NaCl, 0.1 mM EDTA, 0.02% Tween-20, 15% DMSO. All other specificity assays were performed in a similar fashion.
A non-linear curve fit with the Hill model was applied to the inhibition-concentration data, and the 50% effective concentration (IC50) was calculated by the use of SAS software (Statistical Software System; SAS Institute, Inc., Cary, N.C.).

NS3 protease = NS3 protease (Hepatitis C virus genotype 1b, UniProt P26663); assay: Inhibition of NS3 protease by N-terminal cleavage product (assay not specified); format: biochemical, HCV; details: N-terminal cleavage product of an analog of a natural substrate
[4] = Table 2, human leukocyte elastase, read-out: HLE
[5] = IC50, Table 2, unmarked values: NS3 protease/NS4A cofactor peptide radiometric assay

T2 sequence (P26663 1027-1206, other chains not shown): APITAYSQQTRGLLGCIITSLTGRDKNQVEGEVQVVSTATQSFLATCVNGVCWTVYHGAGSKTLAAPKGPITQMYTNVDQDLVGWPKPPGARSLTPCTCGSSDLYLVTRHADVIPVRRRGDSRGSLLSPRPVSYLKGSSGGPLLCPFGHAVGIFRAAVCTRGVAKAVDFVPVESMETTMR
porcine pancreatic elastase, sequence (P00772 27-266): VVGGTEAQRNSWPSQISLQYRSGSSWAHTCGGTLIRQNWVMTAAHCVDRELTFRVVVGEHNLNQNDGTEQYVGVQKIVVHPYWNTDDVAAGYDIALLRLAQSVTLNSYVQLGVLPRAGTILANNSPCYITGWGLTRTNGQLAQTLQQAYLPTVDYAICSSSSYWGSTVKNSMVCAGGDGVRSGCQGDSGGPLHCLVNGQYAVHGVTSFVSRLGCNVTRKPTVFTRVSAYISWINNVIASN
NS3 protease, sequence (P26663 1027-1208): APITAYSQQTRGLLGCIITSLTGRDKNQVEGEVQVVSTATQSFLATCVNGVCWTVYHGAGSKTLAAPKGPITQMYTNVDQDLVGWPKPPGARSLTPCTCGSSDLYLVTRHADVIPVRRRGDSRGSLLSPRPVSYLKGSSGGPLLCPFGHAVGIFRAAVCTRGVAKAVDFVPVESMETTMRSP

Compound | IC50 (human leukocyte elastase) | IC50 [3] | IC50 (human leukocyte elastase; [4]) | IC50 [1, 5] | also measured
CCC[C@H](NC(=O)[C@@H]1C[C@@H](OCc2ccc3ccccc3c2)CN1C(=O)[C@@H](NC(=O)[C@@H](NC(=O)[C@@H](CCC(=O)O)NC(=O)[C@H](CC(=O)O)NC(C)=O)C1CCCCC1)C(C)C)C(=O)O [compound 214] (Ac-D[dE][Chg]V[Hyp](X1)[Nva]-OH) | > 300 µM | > 300 µM | – | – | IC50 ([1]; Table 2, unmarked values: NS3 protease/NS4A cofactor peptide radiometric assay, read-out: IC50): 0.028 µM; IC50 (human liver cathepsin B): > 300 µM; IC50 [2]: > 300 µM
CC[C@H](C)[C@H](NC(=O)[C@@H](CCC(=O)O)NC(=O)[C@H](CC(=O)O)NC(C)=O)C(=O)N[C@H](C(=O)N1C[C@H](OCc2ccccc2)C[C@H]1C(=O)NC1(C(=O)O)CC1)C(C)C [compound 212] (Ac-D[dE]IV[Hyp](Bn)[Ac3c]-OH; C-terminus assumed) | – | > 300 µM | > 300 µM | 0.21 µM | –
Ac-DDIVPC-OH [Ac-D-D-I-V-P-C-OH] | – | – | – | – | inhibition of NS3 protease (NS3 protease): inhibitory
CC[C@@H]1C[C@]1(NC(=O)[C@@H]1C[C@@H](OCc2cccc3ccccc23)CN1C(=O)[C@@H](NC(=O)[C@@H](NC(C)=O)C1CCCCC1)C(C)C)C(=O)O [compound 513] | > 300 µM | – | – | – | fold more potent than the corresponding 1S,2S isomer ([1]; 1R,2R isomer (513) versus 1S,2S isomer (514)): 25 fold; IC50 ([1]; IC50 (μM), Table 5, first line of the cell, NS3 protease/NS4A cofactor peptide radiometric assay (Example 38)): 1.66 µM; IC50 ([1]; text b180, values of Table 5, 1R,2R versus 1S,2S isomer at P1, read-out: IC50): 1.6 µM
CC[C@@H]1C[C@]1(NC(=O)[C@@H]1C[C@@H](OCc2cccc3ccccc23)CN1C(=O)[C@@H](NC(=O)[C@@H](NC(=O)[C@@H](CCC(=O)O)NC(=O)[C@H](CC(=O)O)NC(C)=O)C1CCCCC1)C(C)C)C(=O)O [compound 518] (Ac-D[dE][Chg]V[Hyp](CH2(1-naphthyl))[Acca(2-Et,1R,2R)]-OH) | > 300 µM | – | – | – | IC50 ([1]; Table 5, first line of the cell, NS3 protease/NS4A cofactor peptide radiometric assay (Example 38), read-out: IC50): 0.011 µM
CCC[C@H](NC(=O)[C@@H]1CCCN1C(=O)[C@@H](NC(=O)[C@@H](NC(=O)[C@H](CC(=O)O)NC(=O)[C@H](CC(=O)O)NC(C)=O)[C@@H](C)CC)C(C)C)C(=O)O [compound 123] | > 300 µM | > 300 µM | – | – | IC50 ([1]; Table 1, unmarked values: NS3 protease/NS4A cofactor peptide radiometric assay, read-out: IC50): 220 µM
CC(=O)N[C@@H](CC(=O)O)C(=O)N[C@H](CCC(=O)O)C(=O)N[C@H](C(=O)N[C@H](C(=O)N1C[C@H](OCc2ccccc2)C[C@H]1C(=O)N[C@@H](CS)C(=O)O)C(C)C)C1CCCCC1 [compound 210] (Ac-D[dE][Chg]V[Hyp](Bn)C-OH) | – | > 300 µM | > 300 µM | 0.033 µM | IC50 [2]: > 300 µM
CCC[C@H](NC(=O)[C@@H]1C[C@@H](OCc2ccccc2)CN1C(=O)[C@@H](NC(=O)[C@@H](NC(=O)[C@@H](CCC(=O)O)NC(=O)[C@H](CC(=O)O)NC(C)=O)[C@@H](C)CC)C(C)C)C(=O)O [compound 203] (Ac-D[dE]IV[Hyp](Bn)[Nva]-OH; C-terminus assumed) | – | > 300 µM | > 300 µM | 0.6 µM | IC50 (human liver cathepsin B; Table 2, marked **: human liver cathepsin B, read-out: Other (marked **)): > 300 µM
